Test results from patent US20200165291A1, “NEUROACTIVE STEROIDS, COMPOSITIONS, AND USES THEREOF” (Sage Therapeutics, Inc., priority 2014, published 2020).

Columns and labels:
[1] = target: T1, recombinant α1β2γ2 GABAA receptors (Homo sapiens, UniProt P14867+P47870); assay: Patch clamp electrophysiology, QPatch, LTK cells; type: cell-based; conditions: 10 μM test article, GABA EC20 = 2 μM, read-out: GABA (α1β2γ2) Qpatch in Ltk, % efficacy at 10 μM
T1 construct: expressed in transfected cells

[2] = target: T2, recombinant α4β3δ GABAA receptors (Homo sapiens, UniProt P28472+P48169); assay: Patch clamp electrophysiology, manual patch, CHO cells; type: cell-based; conditions: 10 μM test article, GABA EC20 = 2 μM, read-out: GABA (α4β3δ) Manual patch in CHO, % efficacy at 10 μM
T2 construct: expressed in transfected cells; host or cells: CHO cells (transient transfection, Lipofectamine)

[3] = test system: PTZ-treated male CD-1 mice; assay: Acute PTZ (pentylenetetrazol-induced seizure) method in mice; type: in vivo; conditions: Mus musculus, PO (oral administration), latency to tonic seizures, read-out: Anticonvulsive Effect Dose (minimal effective anticonvulsant dose)
Procedure: The anticonvulsant effect of test compounds were assessed in the pentylenetetazol-induced seizure assay in mice similar to methods described in Giardina & Gasior (2009) Curr Protoc Pharmacol., Chapter 5. Male CD-1 mice were housed in groups of five under controlled conditions (temperature of 22±2° C. and 12:12 light-dark cycle, lights on at 8:00 am) and water and food were available ad libitum. The mice were housed for 1 week prior to behavioral testing, at which time they weighed 25-35 g. Pentylenetetrazol (PTZ, Sigma) was dissolved in sterile 0.9% saline at a concentration of 12 mg/mL concentration for subcutaneous administration. Test compounds were formulated and administered via oral gavage or intraperitoneal injection at a predetermined time-point (typically 30 or 60 minutes) prior to PTZ injection. All solutions were made fresh and were given in a volume of 10 ml/kg body weight.
Mice were acclimated to the test room for at least 30 min before compound administration. Mice were randomized into at least four test groups (vehicle and at least three doses of the test compound) with 10 mice per group. […] Following the drug pretreatment time the mice were injected s.c. with PTZ (120 mg/kg). Immediately following the PTZ injection, mice were individually placed into observation chambers (25×15×15 cm) and a three-channel timer was started. Each mouse was continuously observed for 30 min and the following behaviors were recorded by observers blinded to the treatments: 1) latency to clonic convulsions that persist for 3 sec and followed by an absence of righting reflex 2) latency to tonic convulsions, characterized by the rigid extension of all four limbs that exceeded a 90 degree angle with the body 3) latency to death 4) number of clonic and tonic convulsions. Data are presented as mean±S.E.M and one-way analysis of variance with Dunnett's or Bonferroni's post-hoc test was used to detect significant differences in latency and number between the vehicle and dose group. p values<0.05 were regarded as statistically significant.

male Sprague Dawley rats = assay: Loss of righting reflex in rats; type: in vivo; conditions: Rat IV, 5 mpk
Procedure: Loss of Righting Reflex in Rats
The plasma pharmacokinetics and a qualitative assessment of sedation were obtained in male Sprague Dawley rats according to the following procedure. Rats were dosed by intravenous bolus dose (60 seconds) via the foot dorsal vein at doses ranging from 5 to 15 mg/kg in an appropriate vehicle. In order to assess sedation, rats were gently restrained by hand to a lateral position for dose administration. […] If the animal was unable to return to an upright position, the time was recorded as the onset of loss of righting reflex (LRR). […] Sluggish or incomplete righting twice consecutively within a 30 second interval qualifies as a loss of righting reflex. After onset of LRR, animals were assessed every 5 minutes in the same manner. Recovery of righting reflex is defined as the ability of a rat to right itself completely within 20 seconds of being placed in dorsal recumbency. The duration of LRR is defined as the time interval between LRR and the return of righting reflex.

[4] = target: [35S]-TBPS binding, rat brain cortical membranes (GABA receptor complex); assay: [35S]-TBPS binding (steroid inhibition of TBPS binding); conditions: in the presence of 5 μM GABA, read-out: 35S-TBPS Radioligand Displacement
Procedure: [35S]-t-Butylbicyclophosphorothionate (TBPS) binding assays using rat brain cortical membranes in the presence of 5 μM GABA has been described (Gee et al, J. Pharmacol. Exp. Ther. 1987, 241, 346-353; Hawkinson et al, Mol. Pharmacol. 1994, 46, 977-985; Lewin, A. H et al., Mol. Pharmacol. 1989, 35, 189-194).
Briefly, cortices are rapidly removed following decapitation of carbon dioxide-anesthetized Sprague-Dawley rats (200-250 g). The cortices are homogenized in 10 volumes of ice-cold 0.32 M sucrose using a glass/teflon homogenizer and centrifuged at 1500×g for 10 min at 4° C. The resultant supernatants are centrifuged at 10,000×g for 20 min at 4° C. to obtain the P2 pellets. The P2 pellets are resuspended in 200 mM NaCl/50 mM Na-K phosphate pH 7.4 buffer and centrifuged at 10,000×g for 10 min at 4° C. This washing procedure is repeated twice and the pellets are resuspended in 10 volumes of buffer. Aliquots (100 μL) of the membrane suspensions are incubated with 3 nM [^35S]-TBPS and 5 μL aliquots of test drug dissolved in dimethyl sulfoxide (DMSO) (final 0.5%) in the presence of 5 μM GABA. The incubation is brought to a final volume of 1.0 mL with buffer. Nonspecific binding is determined in the presence of 2 μM unlabeled TBPS and ranged from 15 to 25%. Following a 90 min incubation at room temp, the assays are terminated by filtration through glass fiber filters (Schleicher and Schuell No. 32) using a cell harvester (Brandel) and rinsed three times with ice-cold buffer. Filter bound radioactivity is measured by liquid scintillation spectrometry. Non-linear curve fitting of the overall data for each drug averaged for each concentration is done using Prism (GraphPad). […] The concentration of test compound producing 50% inhibition (IC50) of specific binding and the maximal extent of inhibition (Imax) are determined for the individual experiments with the same model used for the overall data and then the means±SEM.s of the individual experiments are calculated.
Various compounds are or can be screened to determine their potential as modulators of [^35S]-TBPS binding in vitro. These assays are or can be performed in accordance with the above discussed procedures.

T1 sequence (P14867 28-456): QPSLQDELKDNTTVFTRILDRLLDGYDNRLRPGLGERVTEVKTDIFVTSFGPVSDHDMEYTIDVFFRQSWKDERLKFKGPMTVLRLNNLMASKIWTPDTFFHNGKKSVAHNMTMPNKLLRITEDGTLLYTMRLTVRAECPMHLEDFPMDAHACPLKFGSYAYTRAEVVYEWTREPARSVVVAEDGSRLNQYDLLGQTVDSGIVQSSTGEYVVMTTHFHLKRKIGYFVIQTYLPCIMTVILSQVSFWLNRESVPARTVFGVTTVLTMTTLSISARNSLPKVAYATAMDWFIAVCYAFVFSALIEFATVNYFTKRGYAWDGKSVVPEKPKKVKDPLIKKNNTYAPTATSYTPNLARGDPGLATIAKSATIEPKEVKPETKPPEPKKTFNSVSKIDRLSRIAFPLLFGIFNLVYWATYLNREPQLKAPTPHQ
T1 sequence (P47870 25-512 limits assumed): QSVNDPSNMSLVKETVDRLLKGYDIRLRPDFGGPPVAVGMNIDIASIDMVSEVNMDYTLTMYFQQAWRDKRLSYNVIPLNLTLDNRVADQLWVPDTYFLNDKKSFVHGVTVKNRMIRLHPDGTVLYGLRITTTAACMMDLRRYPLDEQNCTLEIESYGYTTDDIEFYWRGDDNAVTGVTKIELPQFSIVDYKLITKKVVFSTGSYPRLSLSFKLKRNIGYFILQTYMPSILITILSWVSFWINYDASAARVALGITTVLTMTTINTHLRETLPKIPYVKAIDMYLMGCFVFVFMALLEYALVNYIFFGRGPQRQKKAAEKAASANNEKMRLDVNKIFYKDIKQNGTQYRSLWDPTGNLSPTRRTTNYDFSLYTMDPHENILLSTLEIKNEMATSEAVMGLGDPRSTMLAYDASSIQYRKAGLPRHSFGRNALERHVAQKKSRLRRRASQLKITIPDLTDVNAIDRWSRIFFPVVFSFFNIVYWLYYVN
T1 sequence (P18507 40-475 partner): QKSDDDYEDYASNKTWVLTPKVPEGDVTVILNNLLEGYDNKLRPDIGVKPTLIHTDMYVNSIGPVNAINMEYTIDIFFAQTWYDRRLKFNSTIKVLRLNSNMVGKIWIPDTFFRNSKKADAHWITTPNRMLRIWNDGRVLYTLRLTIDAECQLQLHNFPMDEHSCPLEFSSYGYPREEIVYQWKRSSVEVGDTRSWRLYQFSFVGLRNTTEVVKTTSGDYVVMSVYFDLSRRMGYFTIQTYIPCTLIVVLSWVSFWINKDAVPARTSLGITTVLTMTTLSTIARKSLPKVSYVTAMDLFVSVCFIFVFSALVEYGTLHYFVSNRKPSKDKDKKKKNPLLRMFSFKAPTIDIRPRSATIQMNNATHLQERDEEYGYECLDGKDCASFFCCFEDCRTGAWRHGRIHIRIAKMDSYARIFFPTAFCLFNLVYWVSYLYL
T2 sequence (P48169 36-554): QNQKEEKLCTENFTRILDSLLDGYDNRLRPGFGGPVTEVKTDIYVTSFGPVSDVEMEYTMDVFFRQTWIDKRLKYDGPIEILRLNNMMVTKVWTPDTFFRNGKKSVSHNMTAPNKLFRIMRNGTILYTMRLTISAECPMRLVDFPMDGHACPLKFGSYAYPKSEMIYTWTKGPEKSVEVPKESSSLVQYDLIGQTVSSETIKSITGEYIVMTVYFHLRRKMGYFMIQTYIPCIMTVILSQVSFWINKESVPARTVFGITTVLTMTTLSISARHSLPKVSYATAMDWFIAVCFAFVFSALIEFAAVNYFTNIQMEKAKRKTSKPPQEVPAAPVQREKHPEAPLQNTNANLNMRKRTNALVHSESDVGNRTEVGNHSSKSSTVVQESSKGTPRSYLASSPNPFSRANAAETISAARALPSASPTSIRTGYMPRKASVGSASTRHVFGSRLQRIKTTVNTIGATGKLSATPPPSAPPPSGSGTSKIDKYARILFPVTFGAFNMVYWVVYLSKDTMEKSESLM
T2 sequence (P28472 26-473): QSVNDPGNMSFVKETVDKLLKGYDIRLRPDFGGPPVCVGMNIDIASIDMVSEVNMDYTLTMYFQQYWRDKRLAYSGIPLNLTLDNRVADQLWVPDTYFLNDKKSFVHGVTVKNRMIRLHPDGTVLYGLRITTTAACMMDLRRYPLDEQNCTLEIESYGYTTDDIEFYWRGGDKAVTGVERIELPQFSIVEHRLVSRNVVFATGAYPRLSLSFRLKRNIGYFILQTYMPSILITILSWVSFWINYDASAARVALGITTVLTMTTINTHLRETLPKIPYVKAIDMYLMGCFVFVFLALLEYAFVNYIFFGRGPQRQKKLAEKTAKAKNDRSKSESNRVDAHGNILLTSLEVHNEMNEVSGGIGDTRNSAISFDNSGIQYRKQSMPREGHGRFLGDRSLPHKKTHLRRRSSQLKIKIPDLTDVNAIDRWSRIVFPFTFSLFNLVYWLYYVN
T2 sequence (O14764 17-452 partner limits assumed): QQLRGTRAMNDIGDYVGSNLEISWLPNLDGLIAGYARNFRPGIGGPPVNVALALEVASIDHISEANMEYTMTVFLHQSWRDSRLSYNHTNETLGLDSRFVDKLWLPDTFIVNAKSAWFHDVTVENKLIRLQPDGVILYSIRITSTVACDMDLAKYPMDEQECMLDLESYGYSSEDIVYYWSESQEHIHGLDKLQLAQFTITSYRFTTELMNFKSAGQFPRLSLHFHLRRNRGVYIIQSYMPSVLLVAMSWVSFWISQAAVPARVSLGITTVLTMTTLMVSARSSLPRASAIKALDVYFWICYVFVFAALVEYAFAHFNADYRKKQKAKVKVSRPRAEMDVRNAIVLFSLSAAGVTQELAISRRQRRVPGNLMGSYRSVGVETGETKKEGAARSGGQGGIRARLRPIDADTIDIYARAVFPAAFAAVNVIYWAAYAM

Row | Compound | Emax at 10 µM [1] | Emax at 10 µM [2] | minimal effective dose [3] | Duration of Rat LRR (male Sprague Dawley rats) | IC50 [4]
1 | Cc1nnn(CC(=O)[C@H]2CC[C@H]3[C@@H]4CC[C@@H]5C[C@](C)(O)CC[C@@H]5[C@H]4CC[C@]23C)n1 [SA-7] | > 500% | > 500% | ≤ 1 mg/kg | B (B > 20 min) | 1 to 50 nM
2 | Cc1nnn(CC(=O)[C@H]2CC[C@H]3[C@@H]4CC[C@H]5C[C@](C)(O)CC[C@@H]5[C@H]4CC[C@]23C)n1 [SB-5] | 100 to 500% | > 500% | ≤ 1 mg/kg | B (B > 20 min) | –
3 | CC[C@@]1(O)CC[C@H]2[C@H](CC[C@@H]3[C@@H]2CC[C@]2(C)[C@@H](C(=O)Cn4nccn4)CC[C@@H]32)C1 [SE-4] | 100 to 500% | > 500% | – | A (A ≤ 20 min) | 50 to 100 nM
4 | Cc1nnn(CC(=O)[C@H]2CC[C@H]3[C@@H]4CC[C@@H]5C[C@@](O)(CF)CC[C@@H]5[C@H]4CC[C@]23C)n1 [SF-3] | 100 to 500% | 100 to 500% | ≤ 1 mg/kg | A (A ≤ 20 min) | –
5 | COC[C@@]1(O)CC[C@H]2[C@@H](CC[C@@H]3[C@@H]2CC[C@]2(C)[C@@H](C(=O)Cn4nnc(C)n4)CC[C@@H]32)C1 [SI-4] | 100 to 500% | 100 to 500% | ≤ 1 mg/kg | B (B > 20 min) | –
6 | C[C@@]1(O)CC[C@@H]2[C@H]3CC[C@]4(C)[C@@H](C(=O)Cn5nccn5)CC[C@H]4[C@@H]3C[C@@H](F)[C@H]2C1 [SV-2] | 100 to 500% | 100 to 500% | ≤ 1 mg/kg | B (B > 20 min) | 50 to 100 nM
7 | Cc1nnn(CC(=O)[C@H]2CC[C@H]3[C@@H]4C[C@@H](F)[C@H]5C[C@](C)(O)CC[C@@H]5[C@H]4CC[C@]23C)n1 [SV-5] | 100 to 500% | 100 to 500% | ≤ 1 mg/kg | B (B > 20 min) | –
